Data reported in ChEMBL document CHEMBL1139619, “Exploiting a basic chemosensitizing pharmacophore hypothesis. Part 1: synthesis and biological evaluation of novel arylbromide and bicyclic chemosensitizers against drug-resistant malaria parasites” (Bioorg Med Chem Lett, 2005).
In brackets after ≈: the same amount, converted by molar mass. Several values for one entry are separate records, joined by “and”; a condition that tells them apart may be missing. Identical values can stand only once. Each block holds one compound with its values, some of them ahead of it.

How the values were obtained:
Plasmodium falciparum [1] = assay: (§1) In vitro inhibitory concentration against chloroquine-enhancing Plasmodium falciparum FCM29 at 0.6 ug/mL; assay type: functional, organism-based
Plasmodium falciparum [2] = assay: (§2) In vitro inhibitory concentration against Plasmodium falciparum FCM29; assay type: functional
Plasmodium falciparum [3] = assay: In vitro inhibition against Plasmodium falciparum FCM29 at 0.3 ug/mL; assay type: functional, organism-based
Plasmodium falciparum [4] = assay: as §2; assay type: functional, organism-based
Plasmodium falciparum [5] = assay: In vitro inhibitory concentration against Plasmodium falciparum FCM29 at 0.3 ug/mL; assay type: functional
Plasmodium falciparum [6] = assay: as §1; assay type: functional
Plasmodium falciparum [7] = assay: (§3) In vitro inhibitory concentration against chloroquine-enhancing Plasmodium falciparum FCM29 at 1.5 ug/mL; assay type: functional, organism-based
Plasmodium falciparum [8] = assay: In vitro inhibitory concentration against Plasmodium falciparum FCM29 at 1.5 ug/mL; assay type: functional
Plasmodium falciparum [9] = assay: In vitro inhibitory concentration chloroquine-enhancing against chloroquine-enhancing Plasmodium falciparum FCM29 at 0.75 ug/mL; assay type: functional, organism-based
Plasmodium falciparum [10] = assay: In vitro inhibitory concentration chloroquine-enhancing against Plasmodium falciparum FCM29 at 0.375 ug/mL; assay type: functional
Plasmodium falciparum [11] = assay: In vitro inhibitory concentration against chloroquine-enhancing Plasmodium falciparum FCM29 at 0.75 ug/mL; assay type: functional
Plasmodium falciparum [12] = assay: (§4) In vitro inhibitory concentration against chloroquine-enhancing Plasmodium falciparum FCM29 at 0.5 ug/mL; assay type: functional
[13] = In vitro inhibitory concentration against chloroquine-enhancing Plasmodium falciparum FCM29 @ concentration of 00 ug/mL; assay type: functional
Plasmodium falciparum [14] = assay: In vitro inhibition against Plasmodium falciparum FCM29 at 2 ug/mL; assay type: functional, organism-based
Plasmodium falciparum [15] = assay: (§5) In vitro inhibitory concentration against Plasmodium falciparum FCM29 @ concentration of 00 ug/mL; assay type: functional
[16] = as §5; assay type: functional
Plasmodium falciparum [17] = assay: as §4; assay type: functional, organism-based
[18] = In vitro inhibitory concentration against chloroquine-enhancing Plasmodium falciparum FCM29 @ concentration of 1 ug/mL; assay type: functional
Plasmodium falciparum [19] = assay: In vitro inhibitory concentration against Plasmodium falciparum FCM29 at 2 ug/mL; assay type: functional
Plasmodium falciparum [20] = assay: In vitro inhibition against Plasmodium falciparum FCM29 at 4 ug/mL; assay type: functional, organism-based
Plasmodium falciparum [21] = assay: In vitro inhibitory concentration against Plasmodium falciparum FCM29 at 4 ug/mL; assay type: functional
Plasmodium falciparum [22] = assay: In vitro inhibitory concentration against Plasmodium falciparum FCM29 @ concentration of 0.5 ug/mL; assay type: functional
Plasmodium falciparum [23] = assay: (§6) In vitro inhibitory concentration against chloroquine-enhancing Plasmodium falciparum FCM29 at 1.25 ug/mL; assay type: functional
Plasmodium falciparum [24] = assay: In vitro inhibitory concentration against chloroquine-enhancing Plasmodium falciparum FCM29 at 2.50 ug/mL; assay type: functional, organism-based
Plasmodium falciparum [25] = assay: In vitro inhibitory concentration against chloroquine-enhancing Plasmodium falciparum FCM29 at.62 ug/mL; assay type: functional, organism-based
Plasmodium falciparum [26] = assay: In vitro inhibitory concentration against Plasmodium falciparum FCM29 at 0.62 ug/mL; assay type: functional
Plasmodium falciparum [27] = assay: In vitro inhibitory concentration against chloroquine-enhancing Plasmodium falciparum FCM29 at2.50 ug/mL; assay type: functional
Plasmodium falciparum [28] = assay: as §6; assay type: functional, organism-based
Plasmodium falciparum [29] = assay: (§7) In vitro inhibitory concentration against chloroquine-enhancing Plasmodium falciparum FCM29 at 5 ug/mL; assay type: functional, organism-based
Plasmodium falciparum [30] = assay: In vitro inhibition against Plasmodium falciparum FCM29 at 0.62 ug/mL; assay type: functional, organism-based
Plasmodium falciparum [31] = assay: as §7; assay type: functional
Plasmodium falciparum [32] = assay: (§8) In vitro inhibitory concentration against chloroquine-enhancing Plasmodium falciparum FCM29 at 2.5 ug/mL; assay type: functional
Plasmodium falciparum [33] = assay: as §8; assay type: functional, organism-based
Plasmodium falciparum [34] = assay: (§9) In vitro inhibitory concentration against Plasmodium falciparum FCM29 at 1 ug/mL; assay type: functional, organism-based
Plasmodium falciparum [35] = assay: as §9; assay type: functional
Plasmodium falciparum [36] = assay: (§10) In vitro inhibitory concentration against chloroquine-enhancing Plasmodium falciparum FCM29 at 2 ug/mL; assay type: functional
Plasmodium falciparum [37] = assay: as §10; assay type: functional, organism-based
Plasmodium falciparum [38] = assay: In vitro inhibition against Plasmodium falciparum FCM29 at 3 ug/mL; assay type: functional, organism-based
Plasmodium falciparum [39] = assay: In vitro inhibitory concentration against Plasmodium falciparum FCM29 at 3 ug/mL; assay type: functional
Plasmodium falciparum [40] = assay: as §3; assay type: functional
Plasmodium falciparum [41] = assay: (§11) In vitro inhibitory concentration against chloroquine-enhancing Plasmodium falciparum FCM29 at 3 ug/mL; assay type: functional
Plasmodium falciparum [42] = assay: as §11; assay type: functional, organism-based
Plasmodium falciparum [43] = assay: (§12) In vitro inhibitory concentration against chloroquine-enhancing Plasmodium falciparum FCM29 at 1.36 ug/mL; assay type: functional
Plasmodium falciparum [44] = assay: In vitro inhibitory concentration against Plasmodium falciparum FCM29 at 0.68 ug/mL; assay type: functional
Plasmodium falciparum [45] = assay: as §12; assay type: functional, organism-based
Plasmodium falciparum [46] = assay: In vitro inhibition against Plasmodium falciparum FCM29 at 0.68 ug/mL; assay type: functional, organism-based

Structure (SMILES): CCN(CC)CCCNc1ccc(-c2ccccc2)cc1
IC90 (Plasmodium falciparum [2]): 18.5 µg/mL (≈ 65.5 µM) | IC50 (Plasmodium falciparum [7]): 25.9 nM | IC90 (Plasmodium falciparum [8]): 114 nM | IC50 (Plasmodium falciparum [9]): 54 nM | IC90 (Plasmodium falciparum [10]): 98.2 nM and 368 nM | IC50 (Plasmodium falciparum [4]): 2.9 µg/mL (≈ 10.3 µM) | IC90 (Plasmodium falciparum [11]): 198 nM

Structure (SMILES): CCN(CC)CCCNc1ccc(Br)cc1
IC90 (Plasmodium falciparum [12]): 745 nM | IC50 [13]: 161 nM | IC90 (Plasmodium falciparum [2]): 66.7 µg/mL (≈ 234 µM) | IC50 (Plasmodium falciparum [14]): 69.3 nM | IC90 (Plasmodium falciparum [15]): 843 nM | IC50 [16]: 161 nM | IC50 (Plasmodium falciparum [17]): 146 nM | IC50 [18]: 95.9 nM | IC90 (Plasmodium falciparum [19]): 272 nM | IC50 (Plasmodium falciparum [20]): 28.7 nM | IC90 (Plasmodium falciparum [21]): 273 nM | IC50 (Plasmodium falciparum [4]): 6.1 µg/mL (≈ 21.4 µM) | IC90 (Plasmodium falciparum [22]): 745 nM

Structure (SMILES): CCN(CC)CCCNc1ccccc1-c1ccccc1
IC90 (Plasmodium falciparum [2]): 94.6 µg/mL (≈ 335 µM) | IC90 (Plasmodium falciparum [23]): 400 nM | IC50 (Plasmodium falciparum [24]): 11.5 nM | IC50 (Plasmodium falciparum [25]): 138 nM | IC90 (Plasmodium falciparum [26]): 820 nM | IC90 (Plasmodium falciparum [27]): 373 nM | IC50 (Plasmodium falciparum [4]): 3.1 µg/mL (≈ 11 µM) | IC50 (Plasmodium falciparum [28]): 72.2 nM

Structure (SMILES): CCN(CC)CCCNc1cccc(Br)c1
IC50 (Plasmodium falciparum [29]): 7.2 nM | IC50 (Plasmodium falciparum [30]): 110 nM | IC90 (Plasmodium falciparum [2]): 80.3 µg/mL (≈ 282 µM) | IC90 (Plasmodium falciparum [23]): 392 nM | IC90 (Plasmodium falciparum [31]): 210 nM | IC90 (Plasmodium falciparum [32]): 443 nM | IC90 (Plasmodium falciparum [26]): 809 nM | IC50 (Plasmodium falciparum [33]): 38.5 nM | IC50 (Plasmodium falciparum [4]): 7.6 µg/mL (≈ 26.6 µM) | IC50 (Plasmodium falciparum [28]): 68.5 nM

Structure (SMILES): CCN(CC)CCCNc1ccccc1Br
IC50 (Plasmodium falciparum [34]; Plasmodium falciparum): 58.2 nM | IC90 (Plasmodium falciparum [35]; Plasmodium falciparum): 290 nM | IC50 (Plasmodium falciparum [14]): 28.8 nM | IC50 (Plasmodium falciparum [38]): 6.1 nM | IC90 (Plasmodium falciparum [39]): 153 nM | IC50 (Plasmodium falciparum [7]): 40.3 nM | IC90 (Plasmodium falciparum [19]): 134 nM | IC90 (Plasmodium falciparum [40]): 195 nM | IC50 (Plasmodium falciparum [4]): 3.7 µg/mL (≈ 13 µM)

The next lines start with the values.

IC50 (Plasmodium falciparum [1]): 101 nM | IC90 (Plasmodium falciparum [2]): 24.4 µg/mL (≈ 86.1 µM) | IC50 (Plasmodium falciparum [3]): 169 nM | IC50 (Plasmodium falciparum [4]): 1.7 µg/mL (≈ 6 µM) | IC90 (Plasmodium falciparum [5]): 655 nM | IC90 (Plasmodium falciparum [6]): 311 nM
Structure (SMILES): CCN(CC)CCCOc1ccc(-c2ccccc2)cc1

IC90 (Plasmodium falciparum [12]): 736 nM | IC50 (Plasmodium falciparum [34]): 119 nM | IC50 (Plasmodium falciparum [34]; Plasmodium falciparum): 101 nM | IC90 (Plasmodium falciparum [2]): 49.5 µg/mL (≈ 175 µM) | IC90 (Plasmodium falciparum [35]): 255 nM and 745 nM | IC50 (Plasmodium falciparum [14]): 70.9 nM | IC50 (Plasmodium falciparum [17]): 152 nM | IC90 (Plasmodium falciparum [19]): 205 nM | IC50 (Plasmodium falciparum [20]): 3.1 nM | IC90 (Plasmodium falciparum [21]): 73.2 nM | IC50 (Plasmodium falciparum [4]): 3.1 µg/mL (≈ 10.9 µM) | IC90 (Plasmodium falciparum [36]): 556 nM | IC50 (Plasmodium falciparum [37]): 77.7 nM
Structure (SMILES): CCN(CC)CCCOc1cccc(-c2ccccc2)c1

IC50 (Plasmodium falciparum [34]; Plasmodium falciparum): 53.9 nM | IC90 (Plasmodium falciparum [2]): 22.3 µg/mL (≈ 78.7 µM) | IC90 (Plasmodium falciparum [35]; Plasmodium falciparum): 534 nM | IC50 (Plasmodium falciparum [7]): 42.9 nM | IC90 (Plasmodium falciparum [40]): 301 nM | IC50 (Plasmodium falciparum [4]): 3.3 µg/mL (≈ 11.6 µM) | IC90 (Plasmodium falciparum [41]): 157 nM | IC90 (Plasmodium falciparum [36]): 191 nM | IC50 (Plasmodium falciparum [42]): 3 nM | IC50 (Plasmodium falciparum [37]): 7.6 nM
Structure (SMILES): CCN(CC)CCCOc1ccccc1-c1ccccc1

IC90 (Plasmodium falciparum [2]): 20.8 µg/mL (≈ 73.6 µM) | IC90 (Plasmodium falciparum [43]): 630 nM | IC90 (Plasmodium falciparum [44]): 781 nM | IC50 (Plasmodium falciparum [45]): 109 nM | IC50 (Plasmodium falciparum [46]): 160 nM | IC50 (Plasmodium falciparum [4]): 2.3 µg/mL (≈ 8.14 µM)
Structure (SMILES): CCN(CC)CCCNc1cccc(-c2ccccc2)c1
